Results on 7 compounds are retold here after patent US20240327335A1, “AMIDE COMPOUND HAVING IODOARYL OR IODOHETEROARYL, PREPARATION METHOD THEREFOR AND USE THEREOF” (CARDIOLINK SCIENCE (SHENZHEN) MEDICAL TECHNOLOGY …, priority 2022, published 2024).

As a reminder, the melting point is the temperature, or range, at which the solid turns liquid.

Structures are written as SMILES.

As for `O=CCNC(=O)c1cc(I)cc(I)c1I` [Compound I-8], the melting point is 90 to 92 °C.
As to `COC(CNC(=O)Cc1cc(I)cc(I)c1I)OC` [Compound I-11], the melting point fell in the range of 172 to 173 °C.
As to `COC(CNC(=O)COc1c(I)cc(I)cc1I)OC` [Compound I-10], the melting point lay in the range of 170 to 171 °C.
As for `COC(CNC(=O)c1cc(I)ccc1I)OC` [Compound I-7], the figure is 165 to 166 °C; as for `COC(CNC(=O)c1cc(I)cc(I)c1I)OC` [Compound I-1, N-(2,2-dimethoxyethyl)-2,3,5-triiodobenzamide], 180 to 182 °C.
With `COC(CNC(=O)c1ccc(I)cc1)OC` [Compound I-6], the melting point fell in the range of 156 to 158 °C.
The compound `COC(CNC(=O)c1ccc(I)cn1)OC` [Compound I-9] showed a melting point of 178 to 180 °C.
